The record followed here is patent US4109088A, “2-(Indenyloxymethyl) morpholine derivatives” (priority 1975, dated 1978).

Data set [1] concerns methamphetamine-induced stereotyped behavior. Kind of data set: Methamphetamine-induced stereotyped behavior in rats (Experiment 6). It is filed as in vivo, rats (male Wistar strain, aged 8 weeks). The protocol: Effects of the compounds on methamphetamine-induced stereotyped behavior in rats (male Wistar strain, aged 8 weeks) were examined according to the method of Ueki et al. (Folia Pharmacologica Japonica, 68, 716, 1972).
The rats were placed in separate plastic cages for 1 hour to be accustomed to the experimental conditions and then the tested compounds were given intraperitoneally followed, after 1 hour, by an intraperitoneal application of methamphetamine (5 mg/kg). The influence of the tested compounds on the agitated behavior of the rats were observed every 30 minutes till 5 hours thereafter.

For data set [2], the system named is reserpine-induced hypothermia. Nature of the data set: Reserpine-induced hypothermia in mice (Experiment 7). The note with it: p.o.
The nature of data set [3]: Pharmacological activity of the isolated isomer salts (general statement). As to conditions: statement in words. It is filed as in vivo.
In data set [4] the test system is methamphetamine-induced stereotyped behavior. Kind of data set: Potentiation of methamphetamine-induced stereotyped behavior in rats (Experiment 1). It is filed as in vivo, rats (male Wistar strain, aged 6 weeks). As to conditions: for minimal effective dose: Rattus norvegicus, read-out: minimum effective dose causing statistically significant potentiation of the methamphetamine-induced stereotype; for minimum effective dose causing statistically significant potentiation of the methamphetamine-induced stereotype: i.p., 1 hour before methamphetamine 5 mg/Kg i.p., rats observed every 30 minutes until 5 hours. The procedure:
The rats were placed in separate plastic cages for 1 hour to be accustomed to the experimental conditions, then the tested compounds were given intraperitoneally followed after 1 hour by an intraperitoneal application of methamphetamine (5 mg/Kg).

Data set [5] has as its system reserpine induced ptoses and hypothermia. Kind of data set: Competitive effects on reserpine induced ptoses and hypothermia in mice (Experiment 3). Type of data set: in vivo, mice (male ICR-JCL strain weighing 25-35 g). The note with it: 10 mg/Kg, p.c. (so in the source), simultaneously with reserpine 2 mg/Kg i.p.; scored 0.5-6 hours; 10 mice. The procedure: The tested compound (10 mg/Kg, p.c.) and reserpine (2 mg/Kg, i.p.) were applied simultaneously to the mice and the degree of ptosis was scored according to the method of Ruben et al. (J. Pharmacol. Exptl. Ther., 120, 125, 1957) at 0.5, 1, 2, 3, 4, 5 and 6 hours after dosages, respectively.
Rectal temperature of the mice were also measured together with those of non-reserpinized mice. Inhibitory percent of the degree of ptosis and differences between rectal temperatures of reserpinized and non-reserpinized mice due to the tested compound are shown in the following Table. For each experiment 10 mice were used.

Data set [6] is described as follows: in vivo. As to conditions: mouse, po, male, 25-35 g. The text has this:
Acute toxicity (ICR-JCR strain, male, weighing 25-35 g, p.o.)

Structures can show the parent of a compound that is named as a salt.

`C1=Cc2c(cccc2OCC2CNCCO2)C1.Cl` (stereo not shown) [2-(4-indenyloxymethyl)-morpholine hydrochloride] yielded an ED50 in data set [1] (Rattus norvegicus, ip, 1 hour before methamphetamine 5 mg/kg i.p.) of 5 mg/kg.
As to `C1=Cc2cccc(OCC3CNCCO3)c2C1.Cl` (stereo not shown) [2-(7-indenyloxymethyl)morpholine hydrochloride], in data set [1] (ratio of ED50, i.p.), the “relative potency vs 2-(4-indenyloxymethyl) morpholine hydrochloride” value came to 2.5 times. Also, the “potency compared with 2-(4-indenyloxymethyl) morpholine hydrochloride” value in data set [2] is on record as “more potent than the latter”.
Turning to `C1=Cc2cccc(OCC3CNCCO3)c2C1` (stereo not drawn) [7-isomer acid addition salt, acid addition salt of 2-(7-indenyloxymethyl) morpholine], in data set [3], the “pharmacological activity compared with the 4-isomer acid addition salt” value is listed as “more preferable pharmacological activity than the 4-isomer acid addition salt”.
For `CN(C)CCC=C1c2ccccc2CCc2ccccc21` [Amitriptyline, reference compound], the minimal effective dose in data set [4] stood at 10 mg/kg.
`CC(C)N1CCOC(COc2cccc3c2CCC3)C1` (stereo not shown) [Compound C, 2-(4-indanyloxymethyl)-4-isopropyl morpholine, reference compound]: the “minimum effective dose causing statistically significant potentiation of the methamphetamine-induced stereotype” value in data set [4] is reported as “non effective”.
For `CC(C)N1CCOC(COc2cccc3c2CC=C3)C1` (stereo not shown) [Example 1, 4-isopropyl-2-(7-indenyloxymethyl)morpholine], the minimal effective dose in data set [4] amounted to 0.3 mg/kg. Moreover, the “Inhibition of ptosis (%)” value in data set [5] is given as 14.5%. Also, the LD50 in data set [6] amounted to 650 mg/kg.
For `CCCCN1CCOC(COc2cccc3c2CC=C3)C1` (stereo not shown) [Example 2, 4-butyl-2-(7-indenyloxymethyl)-morpholine], in data set [4], the minimal effective dose was determined as 3 mg/kg.
Regarding `CCN1CCOC(COc2cccc3c2CC=C3)C1` (stereo not shown) [Example 5, 4-ethyl-2-(7-indenyloxymethyl)morpholine], in data set [4], the minimal effective dose was 0.3 mg/kg. The molecule also had an LD50 in data set [6] of 700 mg/kg.
For `CCCN1CCOC(COc2cccc3c2CC=C3)C1` (stereo not shown) [Example 6, 2-(7-indenyloxymethyl)-4-propylmorpholine], the minimal effective dose in data set [4] is 1 mg/kg.
For `CC1=CCc2c(OCC3CNCCO3)cccc21` (stereo not shown) [Example 11, 2-(3-methyl-7-indenyloxymethyl)morpholine], in data set [4], the minimal effective dose amounted to 0.3 mg/kg.
Same read-out and setting: to `CC1=CCc2c(OCC3CN(C(C)C)CCO3)cccc21` (stereo not shown) [Example 12A, 4-isopropyl-2-(3-methyl-7-indenyloxymethyl)morpholine] belongs 0.03 mg/kg.
Still for that read-out and setting: to `CC1=CCc2cccc(OCC3CN(C(C)C)CCO3)c21` (stereo not shown) [Example 12B, 4-isopropyl-2-(3-methyl-4-indenyloxymethyl)morpholine] belongs 0.3 mg/kg.
Take `CCOc1ccccc1OCC1CNCCO1` (stereo not shown) [Viloxazine HCl, 2-(2-ethoxyphenoxymethyl) morpholine, reference compound]: in data set [4], the “minimum effective dose causing statistically significant potentiation of the methamphetamine-induced stereotype” value is on record as “non effective”. Besides, in data set [5], the “Inhibition of ptosis (%)” value was found to be 6.0%.
In the case of “mixture of 2-(4-indenyloxymethyl)morpholine and 2-(7-indenyloxymethyl) morpholine [Example 10]”, the “minimum effective dose causing statistically significant potentiation of the methamphetamine-induced stereotype” value in data set [4] came out at 0.3 mg/kg.

In general, ED50 refers to the dose that gives a 50% effect, or the effect in half of the subjects. What is called LD50 is the dose expected to kill half of the subjects tested. Read a high LD50 as a less toxic substance.
